Laboratory results taken from PubChem BioAssay AID192 (DTP/NCI, 2004).
“And” between values parts separate entries of the source, which are not always exact repeats. Equal entries are not always repeated. Inconclusive results and toxic doses are left out.

Tested on: BDF1 mice, B16 melanoma ip, median survival T/C
Assay: NCI In Vivo Anticancer Drug Screen. Data for tumor model B16 Melanoma (intraperitoneal) in B6D2F1 (BDF1) mice
Conditions: endpoint: median survival time, higher = longer survival
Method in brief: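 Survival or tumor size is measured after treatment of tumor-bearing mice and normalised to the vehicle-treated control group.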

[1] = dose: 4.0 mg/kg/injection, schedule: Q01DX009 (ip), vehicle: saline
[2] = dose: 200.0 mg/kg/injection, schedule: Q01DX009 (ip), vehicle: Klucel (hydroxypropylcellulose) (HPC)
[3] = dose: 100.0 mg/kg/injection, schedule: Q01DX009 (ip), vehicle: Klucel (hydroxypropylcellulose) (HPC)
[4] = dose: 50.0 mg/kg/injection, schedule: Q01DX009 (ip), vehicle: saline with Tween-80
[5] = dose: 100.0 mg/kg/injection, schedule: Q01DX009 (ip), vehicle: saline with Tween-80

CO[C@@]12[C@H](COC(N)=O)C3=C(C(=O)C(C)=C(N)C3=O)N1C[C@@H]1N[C@@H]12
T/C (dose: 0.06 mg/kg/injection, schedule: Q01DX009 (ip), vehicle: Klucel (hydroxypropylcellulose) (HPC)): 113 % of control | T/C (dose: 0.1 mg/kg/injection, schedule: Q04DX003 (ip), vehicle: saline): 99 % of control | T/C (dose: 0.13 mg/kg/injection, schedule: Q01DX001 (ip), vehicle: clinical formulation): 105 % of control | T/C (dose: 0.13 mg/kg/injection, schedule: Q01DX009 (ip), vehicle: Klucel (hydroxypropylcellulose) (HPC)): 114 % of control | T/C (dose: 0.13 mg/kg/injection, schedule: Q01DX009 (ip), vehicle: saline): 117 % of control | T/C (dose: 0.2 mg/kg/injection, schedule: Q04DX003 (ip), vehicle: saline): 113 % of control | T/C (dose: 0.22 mg/kg/injection, schedule: Q01DX009 (ip), vehicle: saline): 103 % of control | T/C (dose: 0.25 mg/kg/injection, schedule: Q01DX001 (ip), vehicle: clinical formulation): 114 % of control | T/C (dose: 0.25 mg/kg/injection, schedule: Q01DX009 (ip), vehicle: Klucel (hydroxypropylcellulose) (HPC)): 110 % of control | T/C (dose: 0.25 mg/kg/injection, schedule: Q01DX009 (ip), vehicle: saline): 103 % of control | T/C (dose: 0.36 mg/kg/injection, schedule: Q01DX009 (ip), vehicle: saline): 117 % of control | T/C (dose: 0.5 mg/kg/injection, schedule: Q01DX001 (ip), vehicle: clinical formulation): 123 % of control | T/C (dose: 0.5 mg/kg/injection, schedule: Q01DX009 (ip), vehicle: Klucel (hydroxypropylcellulose) (HPC)): 113 % of control | T/C (dose: 0.5 mg/kg/injection, schedule: Q01DX009 (ip), vehicle: saline): 159 % of control | T/C (dose: 0.54 mg/kg/injection, schedule: Q01DX009 (ip), vehicle: saline): 154 % of control and 217 % of control | T/C (dose: 0.54 mg/kg/injection, schedule: Q01DX010 (ip), vehicle: saline): 114 % of control | T/C (dose: 0.6 mg/kg/injection, schedule: Q01DX009 (ip), vehicle: saline): 151 % of control | T/C (dose: 0.9 mg/kg/injection, schedule: Q01DX010 (ip), vehicle: saline): 107 % of control | T/C (dose: 1.0 mg/kg/injection, schedule: Q01DX007 (ip), vehicle: saline): 152 % of control | T/C (dose: 1.0 mg/kg/injection, schedule: Q01DX009 (ip), vehicle: Klucel (hydroxypropylcellulose) (HPC)): 181 % of control and 189 % of control | T/C (dose: 1.0 mg/kg/injection, schedule: Q01DX009 (ip), vehicle: saline sonified): 169 % of control | T/C (dose: 1.0 mg/kg/injection, schedule: Q04DX003 (ip), vehicle: clinical formulation): 159 % of control | T/C (dose: 1.5 mg/kg/injection, schedule: Q01DX010 (ip), vehicle: saline): 101 % of control | T/C (dose: 1.5 mg/kg/injection, schedule: Q04DX003 (ip), vehicle: clinical formulation): 151 % of control | T/C (dose: 1.5 mg/kg/injection, schedule: Q04DX003 (ip), vehicle: saline): 164 % of control | T/C (dose: 1.6 mg/kg/injection, schedule: Q04DX003 (ip), vehicle: saline): 172 % of control | T/C (dose: 1.67 mg/kg/injection, schedule: Q01DX009 (ip), vehicle: saline): 151 % of control | T/C (dose: 2.0 mg/kg/injection, schedule: Q01DX001 (ip), vehicle: clinical formulation): 153 % of control | T/C (dose: 2.0 mg/kg/injection, schedule: Q04DX003 (ip), vehicle: clinical formulation): 236 % of control | T/C (dose: 2.5 mg/kg/injection, schedule: Q01DX009 (ip), vehicle: saline): 34 % of control and 57 % of control | T/C (dose: 2.5 mg/kg/injection, schedule: Q01DX010 (ip), vehicle: saline): 105 % of control | T/C (dose: 3.0 mg/kg/injection, schedule: Q04DX003 (ip), vehicle: clinical formulation): 260 % of control | T/C (dose: 3.0 mg/kg/injection, schedule: Q04DX003 (ip), vehicle: saline): 193 % of control | T/C (dose: 3.2 mg/kg/injection, schedule: Q04DX003 (ip), vehicle: saline): 231 % of control | T/C (dose: 4.0 mg/kg/injection, schedule: Q01DX007 (ip), vehicle: saline): 57 % of control

O=C1C(NCC(O)CO)=C(N2CC2)C(=O)C(NCC(O)CO)=C1N1CC1 (stereo unspecified)
T/C (dose: 1.0 mg/kg/injection, schedule: Q01DX009 (ip), vehicle: saline): 95 % of control | T/C (dose: 2.0 mg/kg/injection, schedule: Q01DX009 (ip), vehicle: saline): 121 % of control | T/C [1]: 123 % of control

O=[N+]([O-])c1cc2c(c([N+](=O)[O-])c1)OCOC2
T/C [2]: 100 % of control

Cc1[nH]c(=O)[nH]c(=O)c1[N+](=O)[O-]
T/C [3]: 100 % of control | T/C [2]: 95 % of control | T/C (dose: 400.0 mg/kg/injection, schedule: Q01DX009 (ip), vehicle: Klucel (hydroxypropylcellulose) (HPC)): 100 % of control

O=S(c1ccccc1)c1c(Cl)c(Cl)nc(Cl)c1Cl (stereo unspecified)
T/C (dose: 6.25 mg/kg/injection, schedule: Q01DX009 (ip), vehicle: Klucel (hydroxypropylcellulose) (HPC)): 94 % of control | T/C (dose: 12.5 mg/kg/injection, schedule: Q01DX009 (ip), vehicle: Klucel (hydroxypropylcellulose) (HPC)): 100 % of control

O=CC(NC(=O)N(CCCl)N=O)C(O)C(O)C(O)CO (stereo unspecified)
T/C (dose: 1.3 mg/kg/injection, schedule: Q01DX009 (ip), vehicle: saline): 153 % of control | T/C (dose: 3.0 mg/kg/injection, schedule: Q01DX009 (ip), vehicle: saline): 101 % of control and 201 % of control | T/C [1]: 198 % of control | T/C (dose: 4.5 mg/kg/injection, schedule: Q01DX009 (ip), vehicle: saline): 109 % of control and 201 % of control | T/C (dose: 6.25 mg/kg/injection, schedule: Q01DX001 (ip), vehicle: saline): 154 % of control | T/C (dose: 6.7 mg/kg/injection, schedule: Q01DX009 (ip), vehicle: saline): 287 % of control | T/C (dose: 7.5 mg/kg/injection, schedule: Q01DX001 (ip), vehicle: saline with Tween-80): 184 % of control | T/C (dose: 8.0 mg/kg/injection, schedule: Q01DX009 (ip), vehicle: saline): 91 % of control | T/C (dose: 10.0 mg/kg/injection, schedule: Q01DX009 (ip), vehicle: saline): 159 % of control | T/C (dose: 12.5 mg/kg/injection, schedule: Q01DX001 (ip), vehicle: saline): 191 % of control | T/C (dose: 13.0 mg/kg/injection, schedule: Q01DX001 (ip), vehicle: saline): 201 % of control | T/C (dose: 15.0 mg/kg/injection, schedule: Q01DX001 (ip), vehicle: saline with Tween-80): 284 % of control | T/C (dose: 20.0 mg/kg/injection, schedule: Q01DX001 (ip), vehicle: saline): 163 % of control and 259 % of control | T/C (dose: 25.0 mg/kg/injection, schedule: Q01DX001 (ip), vehicle: saline): 277 % of control | T/C (dose: 30.0 mg/kg/injection, schedule: Q01DX001 (ip), vehicle: saline with Tween-80): 285 % of control | T/C (dose: 30.0 mg/kg/injection, schedule: Q01DX001 (ip), vehicle: saline): 114 % of control and 287 % of control | T/C (dose: 67.0 mg/kg/injection, schedule: Q01DX001 (ip), vehicle: saline): 287 % of control

Cc1cc2oc(C)[n+](Cc3ccccc3)c2cc1C
T/C [4]: 111 % of control | T/C [5]: 98 % of control

CSCCC1NC(=O)C(C(C)=Nc2ccccc2)=C1O (stereo unspecified)
T/C [4]: 100 % of control | T/C [5]: 96 % of control | T/C (dose: 200.0 mg/kg/injection, schedule: Q01DX009 (ip), vehicle: saline with Tween-80): 95 % of control

COc1cc(O)c2c(c1)C(=O)c1cc3c(c(O)c1C2=O)C(OC1OC(C)C(O)C(O)C1OC)C(OC)C(C)(O)C3=O (stereo unspecified)
T/C (dose: 50.0 mg/kg/injection, schedule: Q01DX009 (ip), vehicle: Klucel (hydroxypropylcellulose) (HPC)): 117 % of control | T/C [3]: 96 % of control

CC(C)NC1C2CCC(CC2)C1(O)c1ccc(Cl)c(Cl)c1 (stereo unspecified)
T/C (dose: 0.78 mg/kg/injection, schedule: Q01DX009 (ip), vehicle: saline): 108 % of control | T/C (dose: 1.56 mg/kg/injection, schedule: Q01DX009 (ip), vehicle: saline): 107 % of control | T/C (dose: 3.12 mg/kg/injection, schedule: Q01DX009 (ip), vehicle: saline): 107 % of control | T/C (dose: 6.25 mg/kg/injection, schedule: Q01DX009 (ip), vehicle: saline): 104 % of control | T/C (dose: 12.5 mg/kg/injection, schedule: Q01DX009 (ip), vehicle: saline): 102 % of control

CC(C)N(C(=O)c1ccc(C(=O)N(c2ccccc2)C(C)C)cc1)c1ccccc1
T/C (dose: 12.5 mg/kg/injection, schedule: Q01DX009 (ip), vehicle: saline with Tween-80): 103 % of control | T/C (dose: 25.0 mg/kg/injection, schedule: Q01DX009 (ip), vehicle: saline with Tween-80): 99 % of control | T/C [4]: 99 % of control
